Results reported in patent US20060051754A1, “Transporter selectively transporting sulfate conjugate and its gene” (Japan Science and Technology Agency, priority 2002, published 2006).
Structures can show the parent of a compound that is named as a salt.

Assays:
Format in all cases: cell-based
human OAT7 [1] = target: T1, human OAT7 (Homo sapiens, UniProt Q8IVM8); assay: substrate uptake experiment by oocyte into which the human OAT7 gene cRNA was injected
T1 construct: expressed in transfected cells
Method: After expressing the human OAT7 gene cRNA in an oocyte, [^3H]estrone-sulfate conjugate uptake and [^3H]dehydroepiandrosterone-sulfate conjugate uptake were measured.
After injecting 20 ng of the human OAT7 gene cRNA into the oocyte to be expressed, a 3-days culture was performed.
(§1) A substrate uptake experiment was performed on the oocyte into which the human OAT7 gene cRNA was injected and a control oocyte into which water was injected, using the [^3H]estrone-sulfate conjugate and the [^3H]dehydroepiandrosterone-sulfate conjugate as the substrates in accordance with the method of Kanai et al. (Kanai and Hediger, Nature, Vol. 360, pp. 467 to 471, 1992) as described below. After leaving the oocyte in an ND96 solution (96 mM sodium chloride, 2 mM potassium chloride, 1.8 mM calcium chloride, 1 mM magnesium chloride, 5 mM HEPES, pH7.4) containing the [^3H]estrone-sulfate conjugate (50 nM) and the [^3H]dehydroepiandrosterone-sulfate conjugate (100 nM) as a substrate for 60 minutes, and an uptake ratio of the substrate was measured by way of counting radioactivity taken up into the cells.
Time passage of the substrate uptake by the oocyte into which the human OAT7 gene cRNA was injected and a control oocyte into which water was injected was observed using the [^3H]estrone-sulfate conjugate (50 nM) as the substrate and in accordance with the method of Example 2(1).
The effect of salt added in the culture used in the [^3H]estrone-sulfate conjugate (50 nM) uptake experiment were examined using an oocyte into which the human OAT7 gene cRNA was injected and a control oocyte into which water was injected.
The [^3H]estrone-sulfate conjugate uptake experiment was conducted in accordance with the method described in Example 2(1) using the oocyte into which the human OAT7 gene cRNA was injected. In the experiment, a sodium ion free absorption solution (wherein 96 mM sodium chloride was substituted with 96 mM choline chloride) was used as an uptake solution in place of the standard absorption solution for the purpose of observing the effect of the sodium ion.

human OAT7 [2] = target: T1, human OAT7; assay: Michaelis-Menten kinetics test on OAT7 (oocyte uptake); conditions: mean±standard error; OAT7-expressing oocyte; FIGS. 7A and 7B
Method: as §1
A Michaelis-Menten kinetics test on the liver specific organic anion transporter OAT7 selectively transporting a sulfate conjugate was conducted. The Michaelis-Menten kinetics test on OAT7 was performed by examining changes in uptake ratio of the substrate [^3H]estrone-sulfate conjugate and the [^3H]dehydroepiandrosterone-sulfate conjugate depending on the concentrations of the substrate [^3H]estrone-sulfate conjugate and the [^3H]dehydroepiandrosterone-sulfate conjugate. […]

human OAT7 [3] = target: T1, human OAT7; assay: inhibition of [3H]estrone-sulfate conjugate uptake by OAT7-expressing oocyte (substrate selectivity); conditions: [3H]estrone-sulfate conjugate 1 μM, 100 μM of unlabeled compound; FIGS. 8, 9, 10A and 10B
Method: as §1
In the [^3H]estrone-sulfate conjugate uptake experiment using an oocyte into which the human OAT7 gene cRNA was injected, the effect of addition of various organic anions and organic cations on the system was examined.
The [^3H]estrone-sulfate conjugate uptake experiment was conducted using the oocyte into which the human OAT7 gene cRNA was injected and in accordance with the method described in Example 2(1). In the experiment, [^3H]estrone-sulfate conjugate (1 μM) uptake was measured under the presence and the absence of 100 μM of various compounds (unlabeled).
Since OAT7 is the organic anion transporter existing in the liver, effects of various organic anions which are considered to be transported in the hepatic cells on the [^3H]estrone-sulfate conjugate uptake by way of OAT7 were examined.
In order to clarify which one of the sulfate conjugate, the glucuronide conjugate, the glutathione conjugate is accepted by OAT7, effects of various conjugate compounds on the [^3H]estrone-sulfate conjugate uptake were examined.

T1 sequence (Q8IVM8 whole entry): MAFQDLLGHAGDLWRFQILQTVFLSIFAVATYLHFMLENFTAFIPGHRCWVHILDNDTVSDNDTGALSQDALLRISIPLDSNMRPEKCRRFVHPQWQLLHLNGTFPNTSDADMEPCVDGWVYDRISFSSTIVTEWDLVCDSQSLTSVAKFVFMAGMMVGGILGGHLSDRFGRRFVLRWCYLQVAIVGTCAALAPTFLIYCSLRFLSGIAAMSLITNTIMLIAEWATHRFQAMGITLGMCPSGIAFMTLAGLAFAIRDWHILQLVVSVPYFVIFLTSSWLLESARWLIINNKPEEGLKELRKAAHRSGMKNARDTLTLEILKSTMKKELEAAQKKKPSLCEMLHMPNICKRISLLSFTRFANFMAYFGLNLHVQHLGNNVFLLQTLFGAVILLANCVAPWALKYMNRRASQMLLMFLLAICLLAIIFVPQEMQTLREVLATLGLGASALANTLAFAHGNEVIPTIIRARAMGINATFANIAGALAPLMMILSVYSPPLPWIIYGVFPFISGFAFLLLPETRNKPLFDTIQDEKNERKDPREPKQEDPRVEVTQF

| SMILES | cys-inhibition effect on [3H]estrone-sulfate conjugate uptake (human OAT7 [3]) | also measured |
| --- | --- | --- |
| C[C@]12CC[C@@H]3c4ccc(OS(=O)(=O)O)cc4CC[C@H]3[C@@H]1CCC2=O [estrone-sulfate conjugate] | significant cys-inhibition effect | [3H]estrone-sulfate conjugate uptake by oocytes in which OAT7 was expressed vs control oocyte into which water was injected (human OAT7 [1]; substrate 50 nM, ND96 solution pH7.4, 60 minutes, FIG. 6A): significantly greater; effect of change of extracellular sodium to choline on uptake (human OAT7 [1]; substrate 50 nM, 96 mM sodium chloride substituted with 96 mM choline chloride, FIG. 6C): no effect; time dependency of uptake by way of OAT7 (human OAT7 [1]; substrate 50 nM, FIG. 6B): increases substantially linearly in a time dependent manner till the passage of 120 minutes; Km (human OAT7 [2]): 8.7 ± 1.1 µM |
| O=[N+]([O-])c1ccc(OS(=O)(=O)O)cc1 [p-nitrophenol-sulfate conjugate] | significant cys-inhibition effect | – |
| CC1(C)C(/C=C/C=C/C=C/C=C2\N(CCCCS(=O)(=O)[O-])c3ccc4ccccc4c3C2(C)C)=[N+](CCCCS(=O)(=O)[O-])c2ccc3ccccc3c21.[Na+] [indocyanin green] | significant cys-inhibition effect | – |
| Cc1cc(=O)oc2cc(OS(=O)(=O)O)ccc12 [4-methylumbelliferyl sulfate conjugate] | significant cys-inhibition effect | – |
| C[C@]12CC[C@@H]3c4ccc(OS(=O)(=O)O)cc4CC[C@H]3[C@@H]1CC[C@@H]2O [β-estradiol-sulfate conjugate] | significant cys-inhibition effect | – |
| N=c1nc(N2CCCCC2)cc(N)n1OS(=O)(=O)O [minoxidil-sulfate conjugate] | significant cys-inhibition effect | – |
| C[C@]12CC[C@H](OS(=O)(=O)O)CC1=CC[C@@H]1[C@@H]2CC[C@]2(C)C(=O)CC[C@@H]12 [dehydroepiandrosterone-sulfate conjugate] | significant cys-inhibition effect | [3H]dehydroepiandrosterone-sulfate conjugate uptake by oocytes in which OAT7 was expressed vs control oocyte into which water was injected (human OAT7 [1]; substrate 100 nM, ND96 solution pH7.4, 60 minutes, FIG. 6A): significantly greater; Km (human OAT7 [2]): 2.2 ± 0.3 µM |
| O=C1OC(c2ccc(O)c(S(=O)(=O)O)c2)(c2ccc(O)c(S(=O)(=O)O)c2)c2c(Br)c(Br)c(Br)c(Br)c21 [sulfobromophthalein] | significant cys-inhibition effect | – |
